Test results taken from patent US20250066383A1, “PDE 7 MODULATOR COMPOUNDS” (Omeros Corporation, priority 2023, published 2025).

Tests used:
[1] = molecular target: PDE7B (Homo sapiens (Human), UniProt Q9NP56); assay: PDE7B assay: inhibition of PDE7B hydrolysis of [3H]cAMP to [3H]AMP (scintillation proximity, yttrium silicate beads); format: biochemical; settings: 16 nM [3H]cAMP, 30° C., 20 minutes; read-out: PDE 7B IC50
Experimental: (§1) PDE7A and PDE7B Assay. Compounds were tested for their activity by measuring the inhibition of PDE7A or PDE7B hydrolysis of [3H]cAMP to [3H]AMP. Generally, eight dilutions of compound were assayed in 50 mM Tris-HCl pH 7.5, 8.3 mM MgCl2, 0.5 mg/mL BSA, 1.7 mM EGTA, 16 nM [3H]cAMP, and 1% DMSO. PDE7A or PDE7B (typically 1-5 ng/mL) (BPS BioSciences, CA) is added to initiate the reaction. The reaction was incubated at 30° C. for 20 minutes. PDE7A and PDE7B hydrolysis was terminated by the addition of yttrium silicate beads (GE Healthcare, RPNQ0150) and counted on a Wallac Microbeta scintillation counter, 1-2 hours following the addition of the beads. Data was analyzed using XLfit […] from which ICso values were obtained.

[2] = molecular target: PDE7A (Homo sapiens (Human), UniProt Q13946); assay: PDE7A assay: inhibition of PDE7A hydrolysis of [3H]cAMP to [3H]AMP (scintillation proximity, yttrium silicate beads); format: biochemical; settings: 16 nM [3H]cAMP, 30° C., 20 minutes; read-out: PDE 7A IC50
Experimental: as §1

Sequence of PDE7A (Q13946 whole entry): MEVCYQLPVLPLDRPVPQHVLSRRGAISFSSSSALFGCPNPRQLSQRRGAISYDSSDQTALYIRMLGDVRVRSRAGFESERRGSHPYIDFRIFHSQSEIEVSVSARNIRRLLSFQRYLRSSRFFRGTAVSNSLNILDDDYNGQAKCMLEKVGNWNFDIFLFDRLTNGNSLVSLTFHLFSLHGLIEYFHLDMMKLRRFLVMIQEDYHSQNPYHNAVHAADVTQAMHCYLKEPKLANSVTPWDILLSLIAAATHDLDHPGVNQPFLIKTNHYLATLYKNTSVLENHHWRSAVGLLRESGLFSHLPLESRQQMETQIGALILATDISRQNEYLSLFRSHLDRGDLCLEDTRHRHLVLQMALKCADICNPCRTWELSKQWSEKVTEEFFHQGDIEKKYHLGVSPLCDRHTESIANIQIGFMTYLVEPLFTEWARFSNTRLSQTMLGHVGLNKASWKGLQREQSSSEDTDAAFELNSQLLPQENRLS
Sequence of PDE7B (Q9NP56 whole entry): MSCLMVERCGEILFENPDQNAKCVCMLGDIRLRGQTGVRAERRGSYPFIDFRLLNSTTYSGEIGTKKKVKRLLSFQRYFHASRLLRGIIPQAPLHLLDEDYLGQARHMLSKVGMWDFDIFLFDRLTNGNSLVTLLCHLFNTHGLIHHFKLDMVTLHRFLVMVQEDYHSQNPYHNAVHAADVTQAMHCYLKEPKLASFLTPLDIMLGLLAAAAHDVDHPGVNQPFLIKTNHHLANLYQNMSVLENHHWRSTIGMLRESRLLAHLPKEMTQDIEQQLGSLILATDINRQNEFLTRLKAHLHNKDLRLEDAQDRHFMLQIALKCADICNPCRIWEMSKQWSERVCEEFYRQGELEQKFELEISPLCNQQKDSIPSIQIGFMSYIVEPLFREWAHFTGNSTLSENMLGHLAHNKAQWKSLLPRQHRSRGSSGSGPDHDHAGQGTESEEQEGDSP

| Compound | IC50 [1] | IC50 [2] |
| --- | --- | --- |
| Cc1nn(CC(C)(C)C)c2sc(C(=O)N[C@H]3C[C@H](N4CCN(C5CC5)CC4)C3)cc12 [II-34, N-((1r,3r)-3-(4-cyclo-propylpiperazin-1-yl)cyclobutyl)-3-methyl-1-neopentyl-1H-thieno[2,3-c] pyrazole-5-carbox-amide] | 30 to 100 nM | 10 to 30 nM |
| Cc1nn(C2CCC(F)(F)CC2)c2sc(C(=O)N[C@H]3C[C@@H](N4CCC(F)(F)C4)C3)cc12 [II-39, 1-(4,4-difluorocyclo-hexyl)-N-((1s,3s)-3-(3,3-difluoropyrrol-idin-1-yl)cyclobutyl)-3-methyl-1H-thieno [2,3-c]pyrazole-5-carboxamide] | 30 to 100 nM | 30 to 100 nM |
| Cc1nn(C2CCC(F)(F)CC2)c2sc(C(=O)N[C@H]3CC[C@H](N4CCN(CC(F)(F)F)CC4)CC3)cc12 [II-12, 1-(4,4-difluorocyclo-hexyl)-N-((1r,4r)-4-(4-(2,2-trifluoroeth-yl)piperazin-1-yl)-cyclohexyl)-3-meth-yl-1H-thieno[2,3-c] pyrazole-5-carbox-amide] | 10 to 30 nM | < 10 nM |
| Cc1nn(C2CCC(F)(F)CC2)c2sc(C(=O)N[C@H]3C[C@H](N4CCOCC4)C3)cc12 [II-18, 1-(4,4-difluorocyclo-hexyl)-3-methyl-N-((1r,3r)-3-morpho-linocyclobutyl)-1H-thieno[2,3-c]pyrazole-5-carboxamide] | 10 to 30 nM | 10 to 30 nM |
| CC(=O)N1CCN([C@H]2CC[C@H](NC(=O)c3cc4c(C)nn(C5CCC(F)(F)CC5)c4s3)CC2)CC1 [II-9, N-((1r,4r)-4-(4-acet-ylpiperazin-1-yl)-cyclohexyl)-1-(4,4-difluorocyclohexyl)-3-methyl-1H-thieno [2,3-c]pyrazole-5-carboxamide] | < 10 nM | < 10 nM |
| Cc1nn(CC2CCC2)c2sc(C(=O)N[C@H]3CC[C@H](N4CC(F)(F)C4)CC3)cc12 [II-22, 1-(cyclobutylmethyl)-N-((1r,4r)-4-(3,3-difluoroazetidin-1-yl)cyclohexyl)-3-methyl-1H-thieno [2,3-c]pyrazole-5-carboxamide] | 30 to 100 nM | 30 to 100 nM |
| Cc1nn(C2CCC(F)(F)CC2)c2sc(C(=O)N[C@H]3CC[C@H](N4CC(F)(F)C4)CC3)cc12 [II-17, N-((1r,4r)-4-(3,3-difluoroazetidin-1-yl)cyclohexyl)-1-(4,4-difluorocyclohexyl)-3-methyl-1H-thieno [2,3-c]pyrazole-5-carboxamide] | < 10 nM | < 10 nM |
| Cc1nn(C2C[C@@H](C)O[C@@H](C)C2)c2sc(C(=O)N[C@H]3CC[C@H](N4CCN(C(C)C)CC4)CC3)cc12 (some centres unmarked) [II-1, 1-((2r,6s)-2,6-dimeth-yltetrahydro-2H-pyr-an-4-yl)-N-((1r,4r)-4-(4-isopropylpiperazin-1-yl)cyclohexyl)-3-methyl-1H-thieno [2,3-c]pyrazole-5-carboxamide] | 500 to 2500 nM | 100 to 500 nM |
| Cc1nn(CC(C)(C)C)c2sc(C(=O)N[C@H]3CC[C@H](N4CCC(F)(F)C4)CC3)cc12 [II-27, N-((1r,4r)-4-(3,3-difluoropyrrolidin-1-yl)cyclohexyl)-3-methyl-1-neopentyl-1H-thieno[2,3-c]pyr-azole-5-carboxamide] | < 10 nM | < 10 nM |
| Cc1nn(C2CCC(F)(F)CC2)c2sc(C(=O)N[C@H]3CC[C@H](N4CCN(C(C)C)CC4)CC3)cc12 [II-10, 1-(4,4-difluorocyclo-hexyl)-N-((1r,4r)-4-(4-isopropylpiper-azin-1-yl)cyclohex-yl)-3-methyl-1H-thieno[2,3-c]pyra-zole-5-carboxamide] | < 10 nM | < 10 nM |
| CC(=O)N1CCN([C@H]2C[C@H](NC(=O)c3cc4c(C)nn(C5CCC(F)(F)CC5)c4s3)C2)CC1 [II-29, N-((1r,3r)-3-(4-acet-ylpiperazin-1-yl)-cyclobutyl)-1-(4,4-difluorocyclohexyl)-3-methyl-1H-thieno [2,3-c]pyrazole-5-carboxamide] | 10 to 30 nM | 10 to 30 nM |
| Cc1nn(-c2ccccc2)c2sc(C(=O)N[C@H]3CC[C@H](N4CCOCC4)CC3)cc12 [Compound I-8, 3-methyl-N-((1r,4r)-4-morpholinocyclohex-yl)-1-phenyl-1H-thieno [2,3-c]pyrazole-5-carboxamide] | 100 to 500 nM | 100 to 500 nM |
| Cc1nn(CC(C)(C)C)c2sc(C(=O)N[C@H]3CC[C@H](N4CCN(CC(F)F)CC4)CC3)cc12 [II-28, N-((1r,4r)-4-(4-(2,2-difluoroethyl)piper-azin-1-yl)cyclohex-yl)-3-methyl-1-neo-pentyl-1H-thieno [2,3-c]pyrazole-5-carboxamide] | 10 to 30 nM | 10 to 30 nM |
| Cc1nn(-c2ccccc2Cl)c2sc(C(=O)N[C@H]3CC[C@H](N4CCOCC4)CC3)cc12 [Compound I-2, 1-(2-chlorophenyl)-3-methyl-N-((1r,4r)-4-morpholinocyclohex-yl)-1H-thieno[2,3-c] pyrazole-5-carbox-amide] | 10 to 30 nM | 10 to 30 nM |
| Cc1nn(C2CCC(F)(F)CC2)c2sc(C(=O)N[C@H]3C[C@H](N4CCN(C5CC5)CC4)C3)cc12 [II-33, N-((1r,3r)-3-(4-cyclo-propylpiperazin-1-yl)cyclobutyl)-1-(4,4-difluorocyclohexyl)-3-methyl-1H-thieno [2,3-c]pyrazole-5-carboxamide] | 10 to 30 nM | 10 to 30 nM |
| Cc1nn(C2CCC(F)(F)CC2)c2sc(C(=O)N[C@H]3CC[C@H](N4CCN(C5CC5)CC4)CC3)cc12 [II-15, N-((1r,4r)-4-(4-cyclo-propylpiperazin-1-yl)cyclohexyl)-1-(4,4-difluorocyclohexyl)-3-methyl-1H-thieno [2,3-c]pyrazole-5-carboxamide] | 10 to 30 nM | 10 to 30 nM |
| CC(=O)N1CCN([C@H]2C[C@H](NC(=O)c3cc4c(C)nn(-c5ccccc5Cl)c4s3)C2)CC1 [Compound I-5, N-((1r,3r)-3-(4-acetyl-piperazin-1-yl)cyclo-butyl)-1-(2-chlorophen-yl)-3-methyl-1H-thieno [2,3-c]pyrazole-5-carboxamide] | 30 to 100 nM | 30 to 100 nM |
| Cc1nn(-c2ccccc2Cl)c2sc(C(=O)N[C@H]3CC[C@H](N4CC(OC(F)F)C4)CC3)cc12 [Compound I-7, 1-(2-chlorophenyl)-N-((1r,4r)-4-(3-(difluoro-methoxy)azetidin-1-yl)-cyclohexyl)-3-methyl-1H-thieno[2,3-c]pyr-azole-5-carboxamide] | 10 to 30 nM | 10 to 30 nM |
| Cc1nn(CC(C)(C)C)c2sc(C(=O)Nc3ccc(N4CCOCC4)c(C#N)c3)cc12 [II-40, N-(3-cyano-4-mor-pholinophenyl)-3-methyl-1-neopentyl-1H-thieno[2,3-c]pyr-azole-5-carboxamide] | 100 to 500 nM | 100 to 500 nM |
| Cc1nn(CC(C)(C)C)c2sc(C(=O)N[C@H]3CC[C@H](N4CCN(C(C)C)CC4)CC3)cc12 [II-31, N-((1r,4r)-4-(4-iso-propylpiperazin-1-yl)cyclohexyl)-3-methyl-1-neopentyl-1H-thieno[2,3-c]pyr-azole-5-carboxamide] | < 10 nM | < 10 nM |
| Cc1nn(CC(C)(C)C)c2sc(C(=O)Nc3ccc(N4CCOCC4)nc3)cc12 [II-35, 3-methyl-N-(6-morpholinopyridin-3-yl)-1-neopentyl-1H-thieno[2,3-c]pyr-azole-5-carboxamide] | 10 to 30 nM | 10 to 30 nM |
| Cc1nn(CC(C)(C)C)c2sc(C(=O)N[C@H]3CC[C@H](N4CC(F)(F)C4)CC3)cc12 [II-30, N-((1r,4r)-4-(3,3-difluoroazetidin-1-yl)cyclohexyl)-3-methyl-1-neopentyl-1H-thieno[2,3-c]pyr-azole-5-carboxamide] | < 10 nM | < 10 nM |
| Cc1nn(-c2ccccn2)c2sc(C(=O)N[C@H]3CC[C@H](N4CCOCC4)CC3)cc12 [Compound I-1, 3-methyl-N-((1r,4r)-4-morpholinocyclohex-yl)-1-(pyridin-2-yl)-1H-thieno[2,3-c]pyr-azole-5-carboxamide] | 100 to 500 nM | 100 to 500 nM |
| COC1CN([C@H]2CC[C@H](NC(=O)c3cc4c(C)nn(CC(C)(C)C)c4s3)CC2)C1 [II-45, N-((1r,4r)-4-(3-methoxyazetidin-1-yl)cyclohexyl)-3-methyl-1-neopentyl-1H-thieno[2,3-c]pyr-azole-5-carboxamide] | 10 to 30 nM | < 10 nM |
| Cc1nn(C2CCC(F)(F)CC2)c2sc(C(=O)N[C@H]3CC[C@H](N4CCN(CC(F)F)CC4)CC3)cc12 [II-11, 1-(4,4-difluorocyclo-hexyl)-N-((1r,4r)-4-(4-(2,2-difluoroeth-yl)piperazin-1-yl)-cyclohexyl)-3-meth-yl-1H-thieno[2,3-c] pyrazole-5-carbox-amide] | 10 to 30 nM | 10 to 30 nM |
| Cc1nn(CC(C)C)c2sc(C(=O)N[C@H]3CC[C@H](N4CCOCC4)CC3)cc12 [II-14] | 30 to 100 nM | 30 to 100 nM |
| CC(=O)N1CCN([C@H]2CC[C@H](NC(=O)c3cc4c(C)nn(CC(C)(C)C)c4s3)CC2)CC1 [II-37, N-((1r,4r)-4-(4-acet-ylpiperazin-1-yl)-cyclohexyl)-3-meth-yl-1-neopentyl-1H-thieno[2,3-c]pyr-azole-5-carboxamide] | < 10 nM | < 10 nM |
| Cc1nn(CC(C)C)c2sc(C(=O)N[C@H]3CC[C@H](N4CCN(CC(F)F)CC4)CC3)cc12 [II-8, N-((1r,4r)-4-(4-(2,2-difluoroethyl)piper-azin-1-yl)cyclohexyl)-1-isobutyl-3-methyl-1H-thieno[2,3-c]pyr-azole-5-carboxamide] | 30 to 100 nM | 30 to 100 nM |
